Article PMC12040169 (PLOS Biology, 2025)

Experiment: in vitro
Conditions: human, hela cells, % viability

Row | SMILES | viability at 28.5 h, 10 µM [%]
1 | N#CC1CCC(CNC(=O)c2sc3ccccc3c2Cl)CC1 (stereo not shown) [CBK010864] | 106
2 | CC(C)c1cc(C(=O)N2CCCCCC2c2ccn(C)n2)no1 (stereo not shown) [CBK283048] | 85.3
3 | CCc1cc(C(=O)N2CCC(Oc3ccc(F)cc3)CC2)n(C)n1 [CBK282034] | 86.5
4 | CN1CCCC1CCOc1ncccc1OCCO (stereo not shown) [CBK039176] | 118
5 | Cc1cccc2c1CC(=O)NC21CCN(CC(=O)c2ccc(F)cc2)CC1 [CBK039946] | 96
6 | COc1cc([C@@]23CC[C@@H](NC(=O)Nc4cccc(C(F)(F)F)c4F)C[C@@H]2N(C)CC3)ccc1C#N [CBK078562] | 106
7 | NS(=O)(=O)c1ccc(CNC(=O)c2cc(-c3cccnc3)nc3ccc(Br)cc23)cc1 [CBK267740] | 96.9
8 | O=C(O)CCCNS(=O)(=O)c1ccc(C2CCCCC2)cc1 [CBK299800] | 95.2
9 | O=C(O)c1cccc(Sc2cc(N3CCCC3)ncn2)c1 [CBK093586] | 113
10 | O=C1CCCN1c1ccc(S(=O)(=O)NCC2CC3CCC2C3)cc1 (stereo not shown) [CBK282841] | 106
11 | COc1ccc(C=O)cc1CSc1nc2ccccc2[nH]1 [CBK266209] | 94.7
12 | CC(=O)Nc1nc2cc3c(cc2s1)OCCO3 [CBK287618] | 96.2
13 | COc1cc(N)c(Cl)cc1C(=O)OCc1cc2ccc(C)cc2nc1Cl [CBK296755] | 89.7
14 | O=C(NCc1ccc(C(F)(F)F)nc1)OCCc1ccncc1 [CBK200132] | 93.2
15 | CC1(c2[nH]nc(N)c2Cc2c(Cl)cccc2Cl)CC1 [CBK115483T] | 92.3
16 | COCc1nnc(NS(=O)(=O)c2ccc(Br)cc2)s1 [CBK045526] | 115
17 | Cc1ccc(C(=O)C2CCN(S(=O)(=O)c3ccc(Cl)c(Cl)c3)CC2)cc1 [CBK019294] | 106
18 | COc1ccc(C)cc1S(=O)(=O)Nc1cc(N2CCNC(C(F)(F)F)C2)c2occc2c1 (stereo not shown) [CBK073818C] | 104
19 | C[C@@H]1CN2CCCC2CN1CCc1ccccc1 (stereo partly shown) [CBK285424] | 85.4
20 | CS(=O)(=O)c1ccc(-c2cnc3[nH]c(=O)n(-c4ccc5[nH]ccc5c4)c3n2)cc1 [CBK064691] | 96.6
21 | Cc1ccc2c(N)c(C(=O)c3ccc4c(c3)OCCO4)sc2n1 [CBK270265] | 84.2
22 | CCNC(=O)c1ccc(-n2cccn2)c(C#Cc2cccnc2)c1 [CBK283150] | 105

Row | SMILES | viability at 28.5 h, 10 µM [%]
23 | CCN(CC)C(=O)CN1CCC(Oc2cncc(OCCN3CCOCC3)n2)C1 (stereo not shown) [CBK084490] | 101
24 | Cc1ccccc1-n1ncc2c(=O)n(CC(=O)N3CCCCC3)cnc21 [CBK287688] | 108
25 | Cc1cc(/C=N/O)c(C)c(COCc2cc(C)cc(/C=N/O)c2C)c1 [CBK261770] | 91.2
26 | COCCNCc1cccc(OCc2ccccc2)c1 [CBK269864C] | 87.9
27 | Cc1ccc2[nH]c3nc(N/N=C/c4ccc(-c5cccc([N+](=O)[O-])c5)o4)nnc3c2c1 [CBK262365] | 106
28 | CCNc1ncc(C(=O)NC(CCn2ccnc2)c2ccccc2)cn1 (stereo not shown) [CBK307066] | 110
29 | Cc1cccc(C(C)(C)C)c1OCCn1ccnc1 [CBK265084] | 109
30 | CCOC(=O)CNS(=O)(=O)c1ccc(C(F)(F)F)cc1[N+](=O)[O-] [CBK034446] | 102
31 | COc1cc(OC)cc(C(=O)Nc2ccc(S(=O)(=O)Nc3nccs3)cc2)c1 [CBK261300] | 103
32 | COc1ccc(C(NC(=O)c2cccc(OC)c2)c2cc(Cl)c3cccnc3c2O)cc1 (stereo not shown) [CBK264027] | 90.7
33 | CN(C)C(CNCc1cn(C)nc1-c1cccnc1)c1ccccc1 (stereo not shown) [CBK304511] | 84.8
34 | c1cc(CCCOc2cc(N3CCCC3)ncn2)ccn1 [CBK115897] | 84.4
35 | Cc1ccc(C(C)CCN2CC3CCCN3C[C@H]2C)o1 (stereo partly shown) [CBK285467] | 101
36 | c1ccc(C(NCc2cnc(-c3cnccn3)s2)C2CCC2)cc1 (stereo not shown) [CBK304016] | 106
37 | O=C(O)CNC(=O)c1ccccc1NC(=O)c1ccco1 [CBK286894] | 90.2
38 | CC(C)(C)N(Cc1ccccc1)C(=O)Cn1nc(C(=O)O)c2ccccc2c1=O [CBK297498] | 86
39 | CC1=C(C(=O)OC(C)C)C(c2cccc(I)c2)C2=C(CCCC2=O)N1 (stereo not shown) [CBK026317] | 86.5
40 | O=C(C1COc2ccccc2O1)N1CCC(Cn2cncn2)(C2CCCCC2)CC1 (stereo not shown) [CBK136792] | 102
41 | COc1ccc(CC(=O)Nc2nc(OCC(F)(F)F)cnc2-c2ccc(Cl)cc2Cl)cc1 [CBK145359] | 91
42 | COc1cc(/C=N/NC(=O)c2nonc2N)ccc1OC(=O)c1cc(F)c(F)cc1Cl [CBK262380] | 90.1
43 | CC(=O)Nc1sc2c(c1-c1nc3ccccc3s1)CCN(C(C)C)C2 [CBK211288] | 3.98
44 | Cc1csc2ncc(C(=O)Nc3ccccc3F)c(=O)n12 [CBK287455] | 113

Row | SMILES | viability at 28.5 h, 10 µM [%]
45 | COC(=O)C1=C(C)N(c2cccc(C(F)(F)F)c2)C(=O)/C1=C\c1ccc(C(=O)O)cc1 [CBK265129] | 92.8
46 | Cc1ccc(S(=O)(=O)N(C)CC(=O)N(C)Cc2ccccc2)cc1 [CBK264201] | 95.5
47 | O=C(O)c1ccc(Sc2ccc(S(=O)(=O)c3ccc(C(=O)O)c(C(=O)O)c3)cc2)cc1 [CBK261253] | 106
48 | COc1ccccc1C(=O)NCC(=O)N/N=C/c1ccc(N(C)C)cc1 [CBK261989] | 104
49 | COC(=O)c1cc(S(N)(=O)=O)c(C)o1 [CBK113185] | 104
50 | Oc1ccc(-c2cccc(N3CCN(c4ccccn4)CC3)n2)cc1 [CBK037028] | 103
51 | Cc1cc(=O)n(CC(=O)NC(C)Cc2ccccn2)c2ccccc12 (stereo not shown) [CBK281420] | 90.3
52 | CC(=O)Nc1ccc(NC(=O)NCC2CCCO2)c(C(F)(F)F)c1 (stereo not shown) [CBK304150] | 92.8
53 | CC(=O)Nc1ccc(S(=O)(=O)Nc2nnc(Cc3ccc(Cl)cc3)s2)cc1 [CBK045515] | 97.9
54 | C[C@@H]1C(=O)O[C@H]2[C@H]1CC[C@@]1(C)Cc3sc(NC(=O)CN(C)C)nc3[C@@H](C)[C@H]21 [CBK289431] | 87.3
55 | Cc1nnc(SCC(=O)N/N=C/c2ccncc2)n1-c1ccccc1 [CBK262762] | 85.4
56 | O=C(Nc1ccc(/C=C/c2ccccc2)cc1)c1ccc(COc2ccccc2)o1 [CBK267829] | 91.3
57 | CC1(NC(=O)c2cccc(OCCN3CCCC3=O)c2)CCC1 [CBK281602] | 92.8
58 | N#Cc1cn([C@@H]2O[C@H](CO)[C@H](O)C2O)c2ncnc(N)c12 (stereo partly shown) [CBK201204] | 18
59 | CC(C)(CNC(=O)Cn1cccc(C(=O)NC2CCCCC2)c1=O)c1cccc(F)c1 [CBK286069] | 86.9
60 | c1coc(-c2nccnc2NCc2cccs2)c1 [CBK037340] | 104
61 | O=C(c1ccc(F)cc1)N1C2CCC1CC(O)(c1ccccc1F)C2 (stereo not shown) [CBK121719] | 102
62 | CC(C)c1ncc(CN2CCC(CC(=O)N3CCN(c4ccccc4)CC3)CC2)cn1 [CBK286048] | 101
63 | Cc1cc(S(=O)(=O)NCCCn2ccnc2)c(C)cc1Br [CBK269525] | 91.8
64 | O=C(Nc1nnc(-c2ccco2)o1)c1ccccc1 [CBK287420] | 96.3
65 | Cc1cc2c(cc3c(=O)n(CC(=O)N4CCC(C)CC4)nc(C)n32)o1 [CBK283590] | 90.1
66 | CCc1nccn1CCN1CCCC(COc2ccccc2F)C1 (stereo not shown) [CBK307416] | 93.4

Row | SMILES | viability at 28.5 h, 10 µM [%]
67 | CCOc1ccc(C(N)CC(=O)O)cc1 (stereo not shown) [CBK262933C] | 82.4
68 | N/C(=N\O)c1ccc(OC(F)(F)F)cc1 [CBK019865] | 97.2
69 | CCCCSc1nnc(-c2ccc(Br)cc2)o1 [CBK027012] | 117
70 | COc1ccc([C@@]23CC[C@@H](NC(=O)c4cccc(Cl)c4)C[C@@H]2N(C)CC3)cc1OC [CBK073982T] | 93.5
71 | COc1ccc(S(=O)(=O)N2CCN(C(C(=O)O)c3ccc(C)cc3)CC2)cc1 (stereo not shown) [CBK296753] | 104
72 | COc1ccccc1C(=O)N1CCC[C@@H](N)[C@@H]1c1ccccc1F [CBK283458] | 86
73 | O=C(O)CCc1ccc(-c2ccc(F)cc2)n1-c1cc(Cl)ccc1Cl [CBK264754] | 111
74 | O=C(Nc1ncccn1)C1CCCCC1 [CBK027567] | 98.3
75 | O=C(O)C1C2CCC(O2)C1C(=O)Nc1ccc(S(=O)(=O)N2CCc3ccccc32)cc1 (stereo not shown) [CBK268137] | 93.1
76 | CC(C)(C)S(=O)(=O)Nc1nccnc1-c1ccc(OCc2ccccc2)cc1 [CBK050886] | 89.4
77 | Cc1nonc1NC(=O)CN1CCCC1 [CBK261840] | 109
78 | NC(=O)CSc1nnc(-c2cc3ccccc3o2)n1Cc1ccccc1 [CBK268964] | 90.1
79 | OC1CCN(Cc2c(-c3cccs3)[nH]c3ncccc23)CC1 [CBK283318] | 79.9
80 | CCCCCc1nc(N)c(-c2cccc(Br)c2)c(C#N)c1CCCC [CBK026574] | 118
81 | COc1ccc(CNC(=O)[C@H]2C=CCN2C(=O)c2cccs2)cc1 [CBK282325] | 103
82 | CC(=O)Nc1cccc(NC(=O)CSc2ccc(C(F)(F)F)cc2[N+](=O)[O-])c1 [CBK264758] | 103
83 | CN(C)CCN(C)c1nc(-c2ccc(C(C)(C)C)cc2)cn2ccnc12 [CBK066477] | 107
84 | CN(CC(=O)O)C(=O)c1ccc(S(=O)(=O)N2CCCCC2)cc1 [CBK265715] | 112
85 | O=C(Nc1nnc(C(F)(F)F)s1)c1cc(Cl)ccc1Cl [CBK095734] | 86.3
86 | COc1cc2c(cc1OC)/C(=C(\C(=O)Nc1ccccc1)C(=O)N1CCCCC1)NC(C)(C)C2 [CBK087103] | 94.5
87 | Cc1cc(NC(c2cccc([N+](=O)[O-])c2)c2ccc3cccnc3c2O)no1 (stereo not shown) [CBK296083] | 89.1

Same assay, conditions: human, hela cells, % viability, bulk resorufin, single well

Row | SMILES | viability at 28.5 h, 10 µM [%]
88 | Cc1cccc(CNC(Cc2ccsc2)c2nccs2)n1 (stereo not shown) [CBK282697] | 106
